# Values of other authors as cited in publication PMC8861878 (The Journal of pharmacy and pharmacology, 2020).
# Test system: opioid receptor
# Conditions: cited from earlier work
compound,measurement,value
"CN1CC[C@]23c4c5ccc(O)c4O[C@H]2[C@@H](O[C@@H]2O[C@H](C(=O)O)[C@@H](O)[C@H](O)[C@H]2O)C=C[C@H]3[C@H]1C5 [M6G, morphine-6-glucuronide]",affinity with opioid receptor relative to morphine,100 times
